Data as given in patent publication US20080113900A1, “Pharmaceutical compositions and therapeutic applications for the use of a synthetic vitamin B12 derivative, glutathionylcobalamin” (priority 2006, published 2008).
“And” between values parts separate entries of the source, which are not always exact repeats. Equal values may be shown once.

How the values were obtained:
[1] = Decomposition in PBS at 37° C. monitored by UV/Vis spectrophotometry; assay type: physicochemical
Procedure: The decomposition of GSCbl, NACCbl, and HcyCbl in PBS at 37° C. was monitored by UV/Vis spectrophotometry.

SK-HEP-1 cells [2] = assay: Protection of endothelial cells from homocysteine-induced cell death (MTS assay); assay type: cell-based, human
Procedure: The effect of a constant concentration of NACCbl and GSCbl to protect cells against variable concentrations of homocysteine was assessed. […] Cell viability was determined by MTS® assay. Data shown in FIG. 4 are representative of means ±SE of 6 independent samples. FIG. 4 illustrates that NACCbl (▪) and GSCbl (▴) protect endothelial cells from the effect of homocysteine. […] Cell viability was determined by MTS® assay. […] There was a decrease in protection as homocysteine concentration increased, but there was still ˜60% survival at 50 μM homocysteine.
The data was normalized (log 2 and log 10) as shown in FIGS. 16 and 17 and Tables 16 and 17, respectively, below.

SK-HEP-1 cells [3] = assay: Protection of endothelial cells from H2O2-induced cell death (MTS assay); assay type: cell-based, human; set-up: key to Cell viability (MTS assay): cell viability as % survival; details: for Cell viability (MTS assay): SK-HEP-1, n = 6 replicates
Procedure: The effect of increasing concentrations of NACCbl and GSCbl to protect endothelial cells from the effect of H2O2 was assessed. […] Cell viability was determined by MTS® assay. […] FIG. 3 illustrates that NACCbl and GSCbl protect endothelial cells from the effect of H2O2. […] Cell viability was determined by MTS® assay. […] There was no difference between the protection afforded by NACCbl and that by GSCbl. Both required 100 μM to achieve >80% survival.

SK-HEP-1 cells [4] = assay: Protection from homocysteine-induced apoptosis, Caspase-3 activity (apoptosis assay); assay type: cell-based, human; details: 30 μM two hours, then 30 μM homocysteine two hours
Procedure: Caspase 3 is activated when cells undergo apoptosis. Caspase-3 assay is a standard for apoptosis assay. Homocysteine is a known inducer of apoptosis. Cells were cultured in 96-well plates for 24 hours and then treated with reagents under test conditions. Cytotoxic agents, H2O2 and etoposide were added to negative control wells. The assay was performed according to the manufacturer's protocol, as follows: Cells were re-suspended in 100 μl of clear media and 50 μl of Caspase-3 substrate solution was immediately added to each test well. […] Cell viability was determined by MTS® assay. […] Cell viability was determined by MTS® assay.

Hsp32 = Hsp32 gene expression (RT-PCR, densitometry); assay type: cell-based, human; details: SK-HEP-1; Sn (IX) protoporphyrin 25 μM; Quercitin 15 μM
Procedure: Cells were plated into 6-, 12-, or 24-well cell culture clusters, at 2×10^3, 2×10^5, or 1×10^5 cells per well and incubated until 90% confluent. Treatments were applied as above.
Following incubation, cells were subjected to mRNA extraction followed by cDNA synthesis for each sample under test. Polymerase chain reaction cDNA templates were prepared for simplex PCR protocol. PCR products were then visualized using a UV Transilluminator and images captured using a Kodak ID gel imaging system. Densitometry and statistical analysis was then performed on each gene expression band image using PSP® v 10.0 running under Windows XP®.
mRNA extraction was performed using the Quickprep micro mRNA Purification Kit. Following incubation of cells post-treatment, the media was removed from the cells, adherent cells were re-suspended in 0.4 ml extraction buffer and 0.8 ml elution buffer at 65° C. was added.
A reaction mixture was prepared in individual microcentrifuge tubes containing 2 cDNA synthesis beads, 32 μl of the mRNA solution and 1 μl of pd(N)6. This mixture was incubated at 37° C. in a water bath for 60 minutes. After incubation, 27 μl of RNase-free DEPC treated water was added to each tube to make a total volume 60 μl. cDNA samples were prepared in duplicate. Sample 1 was used immediately in RT-PCR protocol. Sample 2 was prepared for qPCR protocol by the addition of 150 μl of 95% ice-cold ethanol and stored at −20° C.
Microcentrifuge tubes from puReTaq™Ready-To-Go™ PCR Beads containing one PCR bead were labeled for each sample required. Added to the PCR bead were 17 μl of RNase-free DEPC treated water, 1 μl sense primer, 1 μl anti-sense primer and 5 μl of the cDNA solution. RT-PCR conditions were as follows: Hsp70 and β-actin, pre-treatment step, 94° C. for 1 minute, followed by denaturing at 92° C. for 1 minute, annealing at 60° C. for 1 minute and extension at 72° C. for 1 minute. Total cycles, 30, post-treatment was then carried out at 72° C. for 10 minutes. For Hsp32, pre-treatment step, 95° C. for 2 minutes, followed by denaturing at 94° C. for 30 seconds, annealing at 58° C. for 1 minute and extension at 72° C. for 1 minute. Total cycles 45, post treatment was then carried out at 72° C. for 10 minutes. Following RT-PCR, samples were stored at −20° C.
Gels were visualised on a UV Transilluminator. Photographs were stored using a Kodak Digital camera system fitted with a UV filter set connected to a PC. Images were then transferred to the Kodak ID gel imaging system. Densitometry was performed on each gene expression band using PSP™ v10 running under Windows XP®.
Experiments were conducted using Hsp32 and Hsp 70 gene expression as the basis for study. […] The densitometric data are presented as means ±SEM of n=3 separate experiments. *p<0.05 or **p<0.01, treatment vs. control.

SK-HEP-1 cells [5] = assay: Effect of high concentrations of NACCbl and GSCbl on SK-HEP-1 cells (MTS assay, 24 hours); assay type: cell-based, human; details: for Cell viability by MTS assay (FIG. 13): SK-HEP-1, 3 replicates
SK-HEP-1 cells [6] = assay: Protection of endothelial cells from H2O2-induced cell death (MTS assay); assay type: cell-based, human; set-up: key to Cell viability (MTS assay): cell viability as % survival; details: SK-HEP-1, n = 6 replicates
methionine synthase = biological target: T1, methionine synthase (Oryctolagus cuniculus, UniProt G1SXW3); details: rabbit spleen extracts; cited from earlier work
T1 construct: methionine synthase activity in rabbit spleen extracts; from tissue; host or cells: rabbit spleen extract
T1 sequence (G1SXW3 1-1218): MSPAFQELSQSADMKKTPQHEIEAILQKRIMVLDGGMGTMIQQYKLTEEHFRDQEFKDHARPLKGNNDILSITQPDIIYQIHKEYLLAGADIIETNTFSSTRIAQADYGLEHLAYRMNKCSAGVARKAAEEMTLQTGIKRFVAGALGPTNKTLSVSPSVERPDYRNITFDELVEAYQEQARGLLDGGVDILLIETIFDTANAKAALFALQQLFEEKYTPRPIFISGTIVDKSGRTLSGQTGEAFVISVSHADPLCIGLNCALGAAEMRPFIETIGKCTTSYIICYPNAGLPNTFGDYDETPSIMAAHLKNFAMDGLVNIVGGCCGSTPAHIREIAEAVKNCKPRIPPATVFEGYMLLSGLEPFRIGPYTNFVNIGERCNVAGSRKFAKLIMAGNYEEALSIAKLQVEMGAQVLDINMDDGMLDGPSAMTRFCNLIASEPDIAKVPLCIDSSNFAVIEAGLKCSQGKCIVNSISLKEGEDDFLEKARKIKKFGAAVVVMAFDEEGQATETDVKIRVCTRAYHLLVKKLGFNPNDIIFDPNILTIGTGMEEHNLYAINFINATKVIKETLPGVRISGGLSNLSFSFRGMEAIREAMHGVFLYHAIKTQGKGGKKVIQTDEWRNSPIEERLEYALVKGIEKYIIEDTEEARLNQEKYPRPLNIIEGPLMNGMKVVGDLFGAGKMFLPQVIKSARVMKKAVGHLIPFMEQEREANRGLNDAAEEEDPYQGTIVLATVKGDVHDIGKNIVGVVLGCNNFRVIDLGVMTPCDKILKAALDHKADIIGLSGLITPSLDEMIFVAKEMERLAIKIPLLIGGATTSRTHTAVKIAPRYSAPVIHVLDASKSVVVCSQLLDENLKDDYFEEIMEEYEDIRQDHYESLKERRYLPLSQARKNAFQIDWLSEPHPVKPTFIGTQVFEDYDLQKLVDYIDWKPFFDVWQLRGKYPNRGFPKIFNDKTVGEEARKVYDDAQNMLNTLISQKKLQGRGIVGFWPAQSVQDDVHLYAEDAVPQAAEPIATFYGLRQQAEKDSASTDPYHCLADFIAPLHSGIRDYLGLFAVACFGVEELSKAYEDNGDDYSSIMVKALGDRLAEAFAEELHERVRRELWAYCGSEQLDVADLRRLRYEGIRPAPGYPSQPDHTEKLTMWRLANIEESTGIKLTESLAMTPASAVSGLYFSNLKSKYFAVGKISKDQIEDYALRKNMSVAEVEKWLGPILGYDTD

SK-HEP-1 cells [7] = details: 12.5 µM
in vitro = details: human, SK-HEP-1 cells
SK-HEP-1 cells [8] = assay: Effect of homocysteine and H2O2 on endothelial cell viability (MTS assay); details: for Cell viability (MTS assay): SK-HEP-1, 2 hours, n = 6 replicates

SMILES: C/C1=C2N=C(/C=C3N=C(/C(C)=C4\[N-]C(C(CC(N)=O)C4(C)CCC(=O)NCC(C)OP(=O)([O-])OC4C(CO)OC(n5cnc6cc(C)c(C)cc65)C4O)C4(C)N=C1C(CCC(N)=O)C4(C)CC(N)=O)C(CCC(N)=O)C\3(C)C)C(CCC(N)=O)C/2(C)CC(N)=O.NC(CCC(=O)NC(C[S-])C(=O)NCC(=O)O)C(=O)O.[Co+3] (centres unmarked) [GSCbl, Glutathionylcobalamin]
- t1/2 [1]: No decomposition within 20 hours
- Concentration required for >80% survival protection (SK-HEP-1 cells [2]; 2 hours, then 30 μM homocysteine 24 hours): 50 µM
- Protection against homocysteine-induced damage compared with free thiols (SK-HEP-1 cells [2]; Hcy 30 μM, NAC 45 μM, GSH 100 μM, NACCbl 12.5 μM, GSCbl 15 μM): superior to the free thiols
- Mean (FIG. 14a, protection of SK-HEP-1 cells from Hcy in the presence of folate) (SK-HEP-1 cells [2]; [Hcy] 30 μM, folate 25 μM present, [GSCbl] = 15 μM, [NACCbl] = 12.5 μM, [CNCbl] = 15 μM, [MeCbl] = 12.5 μM, [HOCbl] = 17.5 μM, [NAC] = 45 μM, [GSH] = 100 μM): 2.524
- Survival (SK-HEP-1 cells [2]; compound 30 μM, 50 μM homocysteine): ~60%
- Protection from homocysteine-induced cell death (SK-HEP-1 cells [2]; pre-incubation 30 μM two hours, variable homocysteine two hours): protected cells from homocysteine-induced cell death
- Difference between protection by NACCbl and by GSCbl (SK-HEP-1 cells [3]; 25 μM H2O2 24 hours): no difference
- Concentration required to achieve >80% survival (SK-HEP-1 cells [3]; 2 hours, then 25 μM H2O2 24 hours): 100 µM
- Protection from H2O2 (SK-HEP-1 cells [3]; GSCbl 30 μM, above 7.5 μM H2O2): did not provide significant protection
- Cell viability (MTS assay) (SK-HEP-1 cells [3]; compound 30 μM two hours, then H2O2 200 μM a further two hours): 1.326 and 7.153 and 3.6 and 1.942 and 5.921 and 0.7579
- Cell viability (MTS assay) (SK-HEP-1 cells [3]; compound concentration 6.25, 2 hours, then 25 μM H2O2 24 hours): 48.68 and 56.26 and 45.98 and 43.35 and 42.09 and 41.96
- Cell viability (MTS assay) (SK-HEP-1 cells [3]; compound concentration 12.5, 2 hours, then 25 μM H2O2 24 hours): 44.27 and 54.35 and 50.53 and 47.04 and 44.14 and 42.09
- Cell viability (MTS assay) (SK-HEP-1 cells [3]; compound concentration 25, 2 hours, then 25 μM H2O2 24 hours): 41.24 and 45.5863 and 42.23 and 45.26 and 41.7 and 44.99
- Cell viability (MTS assay) (SK-HEP-1 cells [3]; compound concentration 100, 2 hours, then 25 μM H2O2 24 hours): 64.62 (2×) and 77.87 and 71.61 and 72.6 and 76.5481
- Cell viability (MTS assay) (SK-HEP-1 cells [3]; compound concentration 200, 2 hours, then 25 μM H2O2 24 hours): 94.07 and 100.0659 and 102.8327 and 93.87 and 105.5995 and 94.73
- Protection against apoptosis induced by homocysteine (SK-HEP-1 cells [4]): total protection
- Hsp32 gene expression (Hsp32): induce Hsp32
- Cell viability by MTS assay (FIG. 13) (SK-HEP-1 cells [5]; compound conc. 0.61, 24 hours): 2.554 and 2.376 and 2.53
- Cell viability by MTS assay (FIG. 13) (SK-HEP-1 cells [5]; compound conc. 1.22, 24 hours): 2.347 and 2.433 and 2.503
- Cell viability by MTS assay (FIG. 13) (SK-HEP-1 cells [5]; compound conc. 2.441, 24 hours): 2.527 and 2.434 and 2.46
- Cell viability by MTS assay (FIG. 13) (SK-HEP-1 cells [5]; compound conc. 4.882, 24 hours): 2.543 and 2.528 and 2.519
- Cell viability by MTS assay (FIG. 13) (SK-HEP-1 cells [5]; compound conc. 9.765, 24 hours): 2.532 and 2.476 and 2.42
- Cell viability by MTS assay (FIG. 13) (SK-HEP-1 cells [5]; compound conc. 19.531, 24 hours): 2.553 and 2.476 and 2.42
- Cell viability by MTS assay (FIG. 13) (SK-HEP-1 cells [5]; compound conc. 39.062, 24 hours): 2.492 and 2.484 and 2.468
- Cell viability by MTS assay (FIG. 13) (SK-HEP-1 cells [5]; compound conc. 78.125, 24 hours): 2.444 and 2.406 and 2.402
- Cell viability by MTS assay (FIG. 13) (SK-HEP-1 cells [5]; compound conc. 156.25, 24 hours): 2.407 and 2.37 and 2.318
- Cell viability by MTS assay (FIG. 13) (SK-HEP-1 cells [5]; compound conc. 312.5, 24 hours): 2.306 and 2.204 and 2.138
- Cell viability by MTS assay (FIG. 13) (SK-HEP-1 cells [5]; compound conc. 625, 24 hours): 2.197 and 1.912 and 1.787
- Cell viability by MTS assay (FIG. 13) (SK-HEP-1 cells [5]; compound conc. 1250, 24 hours): 1.973 and 1.846 and 1.71
- Cell viability by MTS assay (FIG. 13) (SK-HEP-1 cells [5]; compound conc. 2500, 24 hours): 1.775 and 1.81 and 1.896
- Cell viability by MTS assay (FIG. 13) (SK-HEP-1 cells [5]; compound conc. 5000, 24 hours): 1.728 and 1.67 and 1.623
- Cell viability by MTS assay (FIG. 13) (SK-HEP-1 cells [5]; compound conc. 10000, 24 hours): 1.322 and 1.342 and 1.366
- Cell death compared with NACCbl (SK-HEP-1 cells [5]; above 0.2 mM concentration): caused greater cell death than NACCbl
- Cell viability (MTS assay) (SK-HEP-1 cells [6]; compound 30 μM two hours, then H2O2 0 μM): 99.24 and 102.2264 and 105.5898 and 103.6002 and 104.0265 and 104.5476
- Cell viability (MTS assay) (SK-HEP-1 cells [6]; compound 30 μM two hours, then H2O2 0.781 μM a further two hours): 96.12 and 98.39 and 97.3946 and 98.0578 and 96.02 and 95.31
- Cell viability (MTS assay) (SK-HEP-1 cells [6]; compound 30 μM two hours, then H2O2 1.56 μM a further two hours): 93.56 and 90.81 (2×) and 92.33 and 88.25 and 91.8522
- Cell viability (MTS assay) (SK-HEP-1 cells [6]; compound 30 μM two hours, then H2O2 3.125 μM a further two hours): 40.31 and 91.33 and 87.3046 and 82.33 and 79.77 and 77.59
- Cell viability (MTS assay) (SK-HEP-1 cells [6]; compound 30 μM two hours, then H2O2 6.25 μM a further two hours): 36.52 and 39.7442 and 34.49 and 34.72 and 34.86 and 36.1
- Cell viability (MTS assay) (SK-HEP-1 cells [6]; compound 30 μM two hours, then H2O2 12.5 μM a further two hours): 29.7963 and 32.02 and 36.1 and 32.4 and 29.99 and 33.92
- Cell viability (MTS assay) (SK-HEP-1 cells [6]; compound 30 μM two hours, then H2O2 25 μM a further two hours): 23.54 and 26.53 and 22.93 and 24.44 and 22.03 and 20.42
- Cell viability (MTS assay) (SK-HEP-1 cells [6]; compound 30 μM two hours, then H2O2 50 μM a further two hours): 15.02 and 20.8432 and 18.95 and 13.12 and 15.6324 and 17.62
- Cell viability (MTS assay) (SK-HEP-1 cells [6]; compound 30 μM two hours, then H2O2 100 μM a further two hours): 10.8 and 12.36 and 11.5585 and 9.995 and 6.679 and 8.527
- Cell viability (MTS assay) (SK-HEP-1 cells [6]; compound concentration 3.125, 2 hours, then 25 μM H2O2 24 hours): 20.88 and 30.9 and 21.34 and 26.8116
- Cell viability (MTS assay) (SK-HEP-1 cells [6]; compound concentration 50, 2 hours, then 25 μM H2O2 24 hours): 42.69 and 45.72 and 48.16 and 46.9 and 46.77 and 51.84
- Promotion of methionine synthase activity (methionine synthase): more active than other cobalamins

SMILES: OO [H2O2, Hydrogen peroxide]
- viability (SK-HEP-1 cells [7]): 11.3% and 10.1% and 11.8% and 11.7% and 12.4%
- viability at 2 h, 0.781 µM (in vitro): 99.4%
- viability at 2 h, 1.562 µM (in vitro): 96.4%
- viability at 2 h, 6.25 µM (in vitro): 32.6%
- viability at 2 h, 12.5 µM (in vitro): 12.4%
- viability at 2 h, 25 µM (in vitro): 3.18%
- Concentration achieving greater than 90% death (<10% survival) (SK-HEP-1 cells [8]; SK-HEP-1, 2 hours): 12.5 µM
- Concentration sufficient to kill cultured endothelial cells (SK-HEP-1 cells [8]; SK-HEP-1, 2 hours, P<0.001): ≥ 3 μm
- Cell viability (MTS assay) (SK-HEP-1 cells [8]; 0.781 μM): 102.4429 and 98.07 and 98.74 and 102.3076 and 99.02
- Cell viability (MTS assay) (SK-HEP-1 cells [8]; 1.562 μM): 96.08 and 96.67 and 98.97 and 85.98
- Cell viability (MTS assay) (SK-HEP-1 cells [8]; 3.125 μM): 46.88 and 52.02 and 50.62 and 52.38 and 82.7345 and 84.54
- Cell viability (MTS assay) (SK-HEP-1 cells [8]; 6.25 μM): 33.89 and 32.31 and 35.2 and 32.54 and 30.46
- Cell viability (MTS assay) (SK-HEP-1 cells [8]; 25 μM): 3.63 (2×) and 3.225 and 3.27 and 3.585
- Cell viability (MTS assay) (SK-HEP-1 cells [8]; 50 μM): 0.4284 and 0.06765 and 0.4735
